From patent US20240148821A1, “PHARMACEUTICAL USE OF CYCLIC PEPTIDE COMPOUND” (CHUGAI SEIYAKU KABUSHIKI KAISHA, priority 2021, published 2024) come the findings set out here.

Bridge positions count the residues as written; N and C are the ends. Square brackets hold non-standard residues; d marks the D form. Peptide text beside a SMILES is read from it. * marks the point of attachment. hPhe(3-Cl-4-CF3) = N[C@@H](CCc1ccc(C(F)(F)F)c(Cl)c1)C(=O)O; hPhe(3-F,4-CF3) = N[C@@H](CCc1ccc(C(F)(F)F)c(F)c1)C(=O)O; NMeNle(6-CHF2) = CN[C@@H](CCCCC(F)F)C(=O)O; NMePhe(4-F) = CN[C@@H](Cc1ccc(F)cc1)C(=O)O; Abu(4,4,4-F3) = N[C@@H](CC(F)(F)F)C(=O)O; NMeCha = CN[C@@H](CC1CCCCC1)C(=O)O; NMeChg = CN[C@H](C(=O)O)C1CCCCC1; NMeE = CN[C@@H](CCC(=O)O)C(=O)O; NMeD = CN[C@@H](CC(=O)O)C(=O)O; NMeL = CN[C@@H](CC(C)C)C(=O)O; NMeV = CN[C@H](C(=O)O)C(C)C; d(β3hA) = C[C@@H](N)CC(=O)O; NMeAbu = CC[C@H](NC)C(=O)O; Morpholide = C1CN(*)CCO1; NMeA = CN[C@@H](C)C(=O)O; Piperidide = C1CCN(*)CC1; Ac5c = NC1(C(=O)O)CCCC1; Aze = O=C(O)[C@@H]1CCN1; Cyclobutyl = C1CC(*)C1; Sar = CNCC(=O)O

The assay deals with Human pancreatic cancer cell line AsPC-1 (G12D mutation Kras). Nature of the assay: AsPC-1 cell growth inhibition (AsPC-1 CGI). The format is cell-based. The conditions noted are these: read-out: AsPC-1 cell growth inhibition, 50% growth inhibitory concentration (IC50 value); 96 hours, CellTiter-Glo, values classified in ranges. On the technique in general: ATP-based viability assays read luminescence as a measure of living cells.
Method: Test compounds were serially dilated with dimethyl sulfoxide, and 200 nL was then dispensed to a U-bottom 96-well plate using Labcyte Echo. […] The cell suspension was dispensed to a. plate containing a test compound at 100 μL per well and incubated at 37° C. in a 5% carbon dioxide gas incubator. 96 hours later, 80 μL of CellTiter-Glo (Promega) was added to each well and fluorescence was measured.
For `CC(C)C[C@H]1C(=O)N[C@@H](CC(F)(F)F)C(=O)N(C)[C@@H](C)C(=O)N2CC[C@H]2C(=O)N(C)[C@@H](CC2CCCCC2)C(=O)N(C)CC(=O)N[C@@H](CCc2ccc(C(F)(F)F)c(Cl)c2)C(=O)N2CCC[C@H]2C(=O)NC2(CCCC2)C(=O)N(C)[C@@H](C(C)C)C(=O)N(C)[C@H](C(=O)N2CCCCC2)CC(=O)N1C` [Compound 1864] ([NMeL][Abu(4,4,4-F3)][NMeA][Aze][NMeCha][Sar][hPhe(3-Cl-4-CF3)]P[Ac5c][NMeV][NMeD]-Piperidide; lactam N-11), the IC50 is above 500 nM.
Regarding `CC[C@H](C)[C@@H]1NC(=O)[C@H](C)N(C)C(=O)C[C@@H](C(=O)N2CCCCC2)N(C)C(=O)[C@H](C(C)C)N(C)C(=O)C2(CCCC2)NC(=O)[C@@H]2CCCN2C(=O)[C@H](CCc2ccc(C(F)(F)F)c(Cl)c2)NC(=O)CN(C)C(=O)[C@H](Cc2ccc(F)cc2)N(C)C(=O)[C@@H]2CCCN2C(=O)CN(C)C1=O` [Compound 1698] ([NMeA]I[Sar]P[NMePhe(4-F)][Sar][hPhe(3-Cl-4-CF3)]P[Ac5c][NMeV][NMeD]-Piperidide; lactam N-11), the IC50 was above 500 nM.
On to `CC[C@H](C)[C@@H]1NC(=O)[C@H](CC(C)C)N(C)C(=O)C[C@@H](C(=O)N2CCCCC2)N(C)C(=O)[C@H](C(C)C)N(C)C(=O)C2(CCCC2)NC(=O)[C@@H]2CCCN2C(=O)[C@H](CCc2ccc(C(F)(F)F)c(Cl)c2)NC(=O)CN(C)C(=O)[C@H](CC2CCCCC2)N(C)C(=O)[C@@H]2CCN2C(=O)[C@H](CCC(=O)NC)N(C)C1=O` [Compound 180] ([NMeL]I[NMeE](NHMe)[Aze][NMeCha][Sar][hPhe(3-Cl-4-CF3)]P[Ac5c][NMeV][NMeD]-Piperidide; lactam N-11), for which the IC50 was above 500 nM.
As to `CC[C@H](C)[C@@H]1NC(=O)[C@H](CC(C)C)N(C)C(=O)C[C@@H](C)NC(=O)[C@H](CC(C)C)N(C)C(=O)C2(CCCC2)NC(=O)[C@@H]2CCCN2C(=O)[C@H](CCc2ccc(C(F)(F)F)c(F)c2)NC(=O)CN(C)C(=O)[C@H](CCCCC(F)F)N(C)C(=O)CN(C)C(=O)CN(C)C1=O` [Compound 1515] (cyclo([Ac5c][NMeL][d(β3hA)][NMeL]I[Sar][Sar][NMeNle(6-CHF2)][Sar][hPhe(3-F,4-CF3)]P)), the IC50 was above 500 nM.
Regarding `CC[C@H](C)[C@@H]1NC(=O)[C@H](CC(C)C)N(C)C(=O)C[C@@H](C(=O)N2CCCCC2)N(C)C(=O)[C@H](C(C)C)NC(=O)C2(CCCC2)NC(=O)[C@@H]2CCCN2C(=O)[C@H](CCc2ccc(C(F)(F)F)c(Cl)c2)NC(=O)CN(C)C(=O)[C@H](CC2CCCCC2)N(C)C(=O)[C@@H]2CCN2C(=O)[C@H](C)N(C)C1=O` [Compound 1106] ([NMeL]I[NMeA][Aze][NMeCha][Sar][hPhe(3-Cl-4-CF3)]P[Ac5c]V[NMeD]-Piperidide; lactam N-11), the IC50 is above 500 nM.
In the case of `CC[C@H](C)[C@@H]1NC(=O)[C@H](CC(C)C)N(C)C(=O)C[C@@H](C)NC(=O)[C@H](CC)N(C)C(=O)C2(CCCC2)NC(=O)[C@@H]2CCCN2C(=O)[C@H](CCc2ccc(C(F)(F)F)c(F)c2)NC(=O)CN(C)C(=O)[C@H](CC2CCCCC2)N(C)C(=O)CN(C)C(=O)CN(C)C1=O` [Compound 1469] (cyclo([Ac5c][NMeAbu][d(β3hA)][NMeL]I[Sar][Sar][NMeCha][Sar][hPhe(3-F,4-CF3)]P)), the IC50 is above 500 nM.
For `CC[C@H](C)[C@@H]1NC(=O)[C@H](CC(C)C)N(C)C(=O)C[C@@H](C(=O)N2CCOCC2)N(C)C(=O)[C@H](C2CCCCC2)N(C)C(=O)C2(CCCC2)NC(=O)[C@@H]2CCCN2C(=O)[C@H](CCc2ccc(C(F)(F)F)c(Cl)c2)NC(=O)CN(C)C(=O)[C@H](CC2CCCCC2)N(C)C(=O)CN(C)C(=O)CN(C)C1=O` [Compound 1333] ([NMeL]I[Sar][Sar][NMeCha][Sar][hPhe(3-Cl-4-CF3)]P[Ac5c][NMeChg][NMeD]-Morpholide; lactam N-11), the IC50 is at most 20 nM.
Regarding `CC[C@H](C)[C@@H]1NC(=O)[C@H](CC(C)C)N(C)C(=O)C[C@@H](C)NC(=O)[C@H](C(C)C)N(C)C(=O)C2(CCCC2)NC(=O)[C@@H]2CCCN2C(=O)[C@H](CCc2ccc(C(F)(F)F)c(Cl)c2)NC(=O)[C@H]2CCCN2C(=O)[C@H](CC2CCCCC2)N(C)C(=O)CN(C)C(=O)CN(C)C1=O` [Compound 76] (cyclo([Ac5c][NMeV][d(β3hA)][NMeL]I[Sar][Sar][NMeCha][dP][hPhe(3-Cl-4-CF3)]P)), the IC50 is above 500 nM.
The same measure for `CC(C)C[C@H]1C(=O)N[C@@H](COC2CCC2)C(=O)N(C)CC(=O)N(C)CC(=O)N(C)[C@@H](CC2CCCCC2)C(=O)N(C)CC(=O)N[C@@H](CCc2ccc(C(F)(F)F)c(Cl)c2)C(=O)N2CCC[C@H]2C(=O)NC2(CCCC2)C(=O)N(C)[C@@H](C2CCCCC2)C(=O)N(C)[C@H](C(=O)N2CCCCC2)CC(=O)N1C` [Compound 226] ([NMeL]S(Cyclobutyl)[Sar][Sar][NMeCha][Sar][hPhe(3-Cl-4-CF3)]P[Ac5c][NMeChg][NMeD]-Piperidide; lactam N-11): above 500 nM.
